The text below walks through data of patent US8334382B2, “Substituted biaryl piperazinyl-pyridine analogues” (Neurogen Corporation, priority 2004, dated 2012).

The assay concerns the target T1, human capsaicin receptor (Homo sapiens, UniProt Q8NER1).
T1 construct: expressed in transfected cells; host or cells: HEK293, stably transfected with pBK-CMV construct
The assay is described as follows: Calcium mobilization assay, determination of antagonist activity. Type of assay: cell-based. The following applies: capsaicin at EC50; cells expressing human capsaicin receptor; Example 6. The method, then:
A cDNA encoding full length human capsaicin receptor (SEQ ID NO:1, 2 or 3 of U.S. Pat. No. 6,482,611) is subcloned in the plasmid pBK-CMV (Stratagene, La Jolla, Calif.) for recombinant expression in mammalian cells.
Human embryonic kidney (HEK293) cells are transfected with the pBK-CMV expression construct encoding the full length human capsaicin receptor using standard methods. The transfected cells are selected for two weeks in media containing G418 (400 μg/ml) to obtain a pool of stably transfected cells. Independent clones are isolated from this pool by limiting dilution to obtain clonal stable cell lines for use in subsequent experiments.
Cells transfected with expression plasmids (as described in Example 4) and thereby expressing human capsaicin receptor are seeded and grown to 70-90% confluency in FALCON black-walled, clear-bottomed 96-well plates (#3904, BECTON-DICKINSON, Franklin Lakes, N.J.). The culture medium is emptied from the 96 well plates and FLUO-3 AM calcium sensitive dye (Molecular Probes, Eugene, Oreg.) is added to each well (dye solution: 1 mg FLUO-3 AM, 440 μL DMSO and 440 μl 20% pluronic acid in DMSO, diluted 1:250 in Krebs-Ringer HEPES (KRH) buffer (25 mM HEPES, 5 mM KCl, 0.96 mM NaH2PO4, 1 mM MgSO4, 2 mM CaCl2, 5 mM glucose, 1 mM probenecid, pH 7.4), 50 μl diluted solution per well). Plates are covered with aluminum foil and incubated at 37° C. for 1-2 h in an environment containing 5% CO2. After the incubation, the dye is emptied from the plates, and the cells are washed once with KRH buffer, and resuspended in KRH buffer.
To measure the ability of a test compound to agonize or antagonize a calcium mobilization response in cells expressing capsaicin receptors to capsaicin or other vanilloid agonist, the EC50 of the agonist capsaicin is first determined. An additional 20 μl of KRH buffer and 1 μl DMSO is added to each well of cells, prepared as described above. 100 μl capsaicin in KRH buffer is automatically transferred by the FLIPR instrument to each well. Capsaicin-induced calcium mobilization is monitored using either FLUOROSKAN ASCENT (Labsystems; Franklin, Mass.) or FLIPR (fluorometric imaging plate reader system; Molecular Devices, Sunnyvale, Calif.) instruments. Data obtained between 30 and 60 seconds after agonist application are used to generate an 8-point concentration response curve, with final capsaicin concentrations of 1 nM to 3 μM. KALEIDAGRAPH software (Synergy Software, Reading, Pa.) is used to fit the data to the equation: y=a*(1/(1+(b/x)^c)) to determine the 50% excitatory concentration (EC50) for the response. In this equation, y is the maximum fluorescence signal, x is the concentration of the agonist or antagonist (in this case, capsaicin), a is the Emax, b corresponds to the EC50 value and c is the Hill coefficient. Determination of Agonist Activity
Test compounds are dissolved in DMSO, diluted in 20 μl KRH buffer so that the final concentration of test compounds in the assay well is between 1 μM and 5 μM, and added to cells prepared as described above. The 96 well plates containing prepared cells and test compounds are incubated in the dark, at room temperature for 0.5 to 6 h. It is important that the incubation not continue beyond 6 h. Just prior to determining the fluorescence response, 100 μl capsaicin in KRH buffer at twice the EC50 concentration determined as described above is automatically added by the FLIPR instrument to each well of the 96 well plate for a final sample volume of 200 μl and a final capsaicin concentration equal to the EC50. The final concentration of test compounds in the assay wells is between 1 μM and 5 μM. […] The concentration of antagonist required to provide a 50% decrease, relative to the response observed in the presence of capsaicin and without antagonist, is the IC50 for the antagonist, and is preferably below 1 micromolar, 100 nanomolar, 10 nanomolar or 1 nanomolar.
For orientation: Calcium assays in cells follow changes in intracellular calcium, usually with a dye or a luminescent sensor.

T1 sequence (Q8NER1 whole entry): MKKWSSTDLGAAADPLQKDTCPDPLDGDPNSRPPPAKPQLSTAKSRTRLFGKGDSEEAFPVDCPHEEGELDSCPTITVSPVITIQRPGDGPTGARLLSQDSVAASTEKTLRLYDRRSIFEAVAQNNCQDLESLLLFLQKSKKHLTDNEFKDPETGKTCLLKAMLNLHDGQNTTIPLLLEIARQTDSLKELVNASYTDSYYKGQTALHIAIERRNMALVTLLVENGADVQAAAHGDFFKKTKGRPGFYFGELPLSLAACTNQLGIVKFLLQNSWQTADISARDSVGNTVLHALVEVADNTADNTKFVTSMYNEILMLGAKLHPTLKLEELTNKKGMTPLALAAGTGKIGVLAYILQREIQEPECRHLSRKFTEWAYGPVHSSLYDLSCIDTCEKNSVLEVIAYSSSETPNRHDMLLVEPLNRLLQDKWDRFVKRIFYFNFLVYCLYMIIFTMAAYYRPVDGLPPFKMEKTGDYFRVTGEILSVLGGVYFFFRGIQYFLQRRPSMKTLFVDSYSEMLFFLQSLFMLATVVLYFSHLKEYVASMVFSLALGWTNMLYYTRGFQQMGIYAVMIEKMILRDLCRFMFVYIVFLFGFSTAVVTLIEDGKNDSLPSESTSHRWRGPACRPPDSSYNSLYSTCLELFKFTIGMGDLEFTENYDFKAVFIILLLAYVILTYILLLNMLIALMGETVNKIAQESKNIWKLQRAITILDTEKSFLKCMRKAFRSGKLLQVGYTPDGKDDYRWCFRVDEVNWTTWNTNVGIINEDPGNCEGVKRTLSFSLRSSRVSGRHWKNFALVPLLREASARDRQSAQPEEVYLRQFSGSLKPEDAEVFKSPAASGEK

Broadly, the IC50 is the concentration that inhibits the measured activity by half. With `C[C@@H]1CN(c2ncc(CO)cc2Cl)CCN1c1cc(-c2ccc(F)c(Cl)c2)nc(N2CCC[C@H]2C)n1` [Example 146, (5-Chloro-6-{4-[6-(3-chloro-4-fluoro-phenyl)-2-(2-(R)-methyl-pyrrolidin-1-yl)-pyrimidin-4-yl]-3-(R)-methyl-piperazin-1-yl}-pyridin-3-yl)-methanol], the IC50 is at most 1000 nM. `C[C@@H]1CN(c2ncc(C(=O)O)cc2Cl)CCN1c1cc(-c2ccc(F)c(Cl)c2)nc(N2CCC[C@H]2C)n1` [Example 103, 5-Chloro-6-{4-[6-(3-chloro-4-fluoro-phenyl)-2-(2-(R)-methyl-pyrrolidin-l-yl)-pyrimidin-4-yl]-3-(R)-methyl-piperazin-1-yl}-nicotinic acid]: the IC50 was at most 1000 nM. Consider `Cc1cc(C(=O)NCC2CCCO2)cnc1N1CCN(c2cc(-c3ccc(F)cc3)nc(N3CCCC3C)n2)CC1` (centres unmarked) [Example 111, 6-{4-[6-(4-fluorophenyl)-2-(2-methylpyrrolidin-1-yl)pyrimidin-4-yl]piperazin-1-yl}-5-methyl-N-(tetrahydrofuran-2-ylmethyl)nicotinamide], for which the IC50 was at most 1000 nM. Turning to `COc1ccc([N+](=O)[O-])c(N2CCN(c3cc(-c4ccc(F)c(Cl)c4)nc(N4CCCC4C)n3)CC2)n1` (centres unmarked) [Example 22, 4-(3-Chloro-4-fluoro-phenyl)-6-[4-(6-methoxy-3-nitro-pyridin-2-yl)-piperazin-1-yl]-2-(2-methyl-pyrrolidin-1-yl)-pyrimidine], the IC50 was at most 1000 nM.

With `C[C@@H]1CN(c2ncc(CO)cc2Cl)CCN1c1cc(-c2ccc(F)cc2)nc(N2CCCC2)n1` [Example 32, (5-Chloro-6-{4-[6-(4-fluoro-phenyl)-2-pyrrolidin-1-yl-pyrimidin-4-yl]-3-(R)-methyl-piperazin-1-yl}-pyridin-3-yl)-methanol], the IC50 was at most 1000 nM.

Take `Cc1cc(CO)cnc1N1CCN(c2cc(-c3ccnc(C(C)C)c3)nc(N3CCCC3C)n2)[C@H](C)C1` (stereo partly drawn) [Example 66, (6-{4-[6-(2-Isopropyl-pyridin-4-yl)-2-(2-methyl-pyrrolidin-1-yl)-pyrimidin-4-yl]-3-(R)-methyl-piperazin-1-yl}-5-methyl-pyridin-3-yl)-methanol]: the IC50 was at most 1000 nM. As for `Cc1cc(CO)cnc1N1CCN(c2cc(-c3ccccc3)nc(N3CCCC3C)n2)CC1` (centres unmarked) [Example 71, (5-Methyl-6-{4-[2-(2-methyl-pyrrolidin-1-yl)-6-phenyl-pyrimidin-4-yl]-piperazin-1-yl}-pyridin-3-yl)-methanol], the IC50 is at most 1000 nM.

For the molecule `CC1CCCN1c1nc(-c2ccc(F)c(Cl)c2)cc(N2CCN(c3ncc(C(N)=O)cc3Cl)C[C@H]2C)n1` (stereo partly drawn) [Example 24, 5-Chloro-6-{4-[6-(3-chloro-4-fluoro-phenyl)-2-(2-methyl-pyrrolidin-1-yl)-pyrimidin-4-yl]-3-(R)-methyl-piperazin-l-yl}-nicotinamide], the IC50 was at most 1000 nM. With `Cc1cccc(-c2cc(N3CCN(c4ncc(CO)cc4Cl)C[C@H]3C)nc(N3CCCC3C)n2)c1` (stereo partly drawn) [Example 48, (5-Chloro-6-{3-(R)-methyl-4-[2-(2-methyl-pyrrolidin-1-yl)-6-m-tolyl-pyrimidin-4-yl]-piperazin-1-yl}-pyridin-3-yl)-methanol], the IC50 was at most 1000 nM. In the case of `C[C@@H]1CN(c2ncc(CC(=O)O)cc2Cl)CCN1c1cc(-c2ccc(F)cc2)nc(N2CCC[C@H]2C)n1` [Example 101, (5-Chloro-6-{4-[6-(4-fluoro-phenyl)-2-(2-(R)-methyl-pyrrolidin-1-yl)-pyrimidin-4-yl]-3-(R)-methyl-piperazin-1-yl}-pyridin-3-yl)-acetic acid], the IC50 is at most 1000 nM. As to `Cc1cccc(-c2cc(N3CCN(c4ncc(C(N)=O)cc4C)CC3)nc(N3CCCC3C)n2)c1` (centres unmarked) [Example 88, 5-Methyl-6-{4-[2-(2-methyl-pyrrolidin-1-yl)-6-m-tolyl-pyrimidin-4-yl]-piperazin-1-yl}-nicotinamide], the IC50 was at most 1000 nM.
